# In patent US20030216569A1, “Method of making HIV protease inhibitors” (priority 1993, published 2003):
# Where “and” joins values, the source holds several entries; their conditions need not be identical. Equal values may be shown once. Read-outs that look alike come from different tables or passages of the source. Marks after values point to notes of the source that are not given here.
# Target: HIV-1 protease (Human immunodeficiency virus type 1 group M subtype B, UniProt P04585)
# Assay: Fluorescence HIV-1 Protease Inhibitor Assay (Pandex)
# Assay type: biochemical
# Design: made in house; host or cells: E. coli K12 L507/pHP10D (NRRL B-18560)
# [1] = normalized to positive control (=1.0), * = a calculated average, read-out: Fluorescence Assay IC50 in ng/mL (converted)
# [2] = value as run, 35B value of the same run in footnote or parentheses, read-out: Pandex IC50 ng/ml (converted)
# [3] = normalized to positive control (=1.0), * = a calculated average
# [4] = value as run, 35B value of the same run in footnote or parentheses
Molecule,IC50 [1],IC50 [2],also measured
"CC(C)(C)NC(=O)C1CC2CCCCC2CN1CC(O)C(Cc1ccccc1)NC(=O)c1cccc(O)c1F (stereo not drawn) [Example 1, [3S-(3R*,4aR*,8aR*,2′S*,3′R*)]-2-[2′-Hydroxy-3′-phenylmethyl-4′-aza-5′-oxo-5′-(2″-fluoro-3″-hydroxyphenyl)pentyl]decahydroisoquinoline-3-N-t-butylcarboxamide]",1780 nM,856 nM,
"CC(C)(C)NC(=O)C1CC2CCCCC2CN1CC(O)C(Cc1ccccc1)NC(=O)c1cccnc1Cl (stereo not drawn) [Example 2, [3S-(3R*,4aR*,8aR*,2′S*,3′R*)]-2-[2′-Hydroxy-3′-phenylmethyl-4′-aza-5′-oxo-5′-(2″-chloro-pyrid-3″-yl)pentyl] decahydroisoquinoline-3-N-t-butylcarboxamide]",2000 nM,963 nM,
"CCc1c(O)cccc1C(=O)NC(Cc1ccccc1)C(O)CN1CC2CCCCC2CC1C(=O)NC(C)(C)C (stereo not drawn) [Example 3, [3S-(3R*,4aR*,8aR*,2′S*,3′R*)]-2-[2′-Hydroxy-3′-phenylmethyl-4′-aza-5′-oxo-5′-(2″-ethyl-3″-hydroxyphenyl)pentyl] decahydroisoguinoline-3-N-t-butylcarboxamide]",44 nM,21.1 nM,
"CC(C)(C)NC(=O)C1CC2CCCCC2CN1CC(O)C(Cc1ccccc1)NC(=O)c1ccc[n+]([O-])c1 (stereo not drawn) [Example 5, [3S-(3R*,4aR*,8aR*,2′S*,3′R*)]-2-[2′-Hydroxy-3′-phenylmethyl-4′-aza-5′-oxo-5′-(pyrid-3″yl-N-oxidyl)pentyl] decahydroisoquinoline-3-N-t-butylcarboxamide]",5030 nM,1910 nM,
"CC(C)(C)NC(=O)C1CC2CCCCC2CN1CC(O)C(Cc1ccccc1)NC(=O)c1cccc(O)c1Cl (stereo not drawn) [Example 11, [3S-(3R*,4aR*,8aR*,2′S*,3′R*)]-2-[2′-Hydroxy-3′-phenylmethyl-4′-aza-5′-oxo-5′-(2″-chloro-3″-hydroxyphenyl)pentyl] decahydroisoquinoline-3-N-t-butylcarboxamide]",9.17 nM,24.6 nM,
"Cc1c(O)cccc1C(=O)NC(Cc1ccccc1)C(O)CN1CC2CCCCC2CC1C(=O)NC(C)(C)C (stereo not drawn) [Example 12, [3S-(3R*,4aR*,8aR*,2′S*,3′R*)]-2-[2′-Hydroxy-3′-phenylmethyl-4′-aza-5′-oxo-5′-(2″-methyl-3″-hydroxyphenyl)pentyl] decahydroisoquinoline-3-N-t-butylcarboxamide]",15.5 nM,21.3 nM and 5.23 nM and 17.5 nM,
"CC(C)(C)NC(=O)C1CC2CCCCC2CN1CC(O)C(Cc1ccccc1)NC(=O)c1ccccc1C(F)(F)F (stereo not drawn) [Example 15, [3S-(3R*,4aR*,8aR*,2′S*,3′R*)]-2-[2′-Hydroxy-3′-phenylmethyl-4′-aza-5′-oxo-5′-(2″-trifluoromethylphenyl)pentyl] decahydroisoquinoline-3-N-t-butylcarboxamide]",657 nM,315 nM,
"CC(C)(C)NC(=O)C1CC2CCCCC2CN1CC(O)C(Cc1ccccc1)NC(=O)c1c(Cl)ccc(O)c1Cl (stereo not drawn) [Example 17, [3S-(3R*,4aR*,8aR*,2′S*,3′R*)]-2-[2′-Hydroxy-3′-phenylmethyl-4′-aza-5′-oxo-5′-(2″,6″-dichloro-3″-hydroxyphenyl)pentyl] decahydroisoquinoline-3-N-t-butylcarboxamide]",,,Fluorescence Assay IC50 in ng/mL [3]: 269* ng/mL; Pandex IC50 ng/ml [4]: 346^b ng/ml
"Cc1c(N)cccc1C(=O)NC(Cc1ccccc1)C(O)CN1CC2CCCCC2CC1C(=O)NC(C)(C)C (stereo not drawn) [Example 18, [3S-(3R*,4aR*,8aR*,2′S*,3′R*)]-2-[2′-Hydroxy-3′-phenylmethyl-4′-aza-5′-oxo-5′-(2″-methyl-3″-aminophenyl)pentyl] decahydroisoquinoline-3-N-t-butylcarboxamide]",126 nM,17.8 nM,
"CC(C)c1c(O)cccc1C(=O)NC(Cc1ccccc1)C(O)CN1CC2CCCCC2CC1C(=O)NC(C)(C)C (stereo not drawn) [Example 20, [3S-(3R*,4aR*,8aR*,2′S*,3′R*)]-2-[2′-Hydroxy-3′-phenylmethyl-4′-aza-5′-oxo-5′-(2″-iospropyl-3″-hydroxyphenyl)pentyl] decahydroisoquinoline-3-N-t-butylcarboxamide]",11.5 nM,151 nM,
"CCCCc1c(O)cccc1C(=O)NC(Cc1ccccc1)C(O)CN1CC2CCCCC2CC1C(=O)NC(C)(C)C (stereo not drawn) [Example 21, [3S-(3R*,4aR*,8aR*,2′S*,3′R*)]-2-[2′-Hydroxy-3′-phenylmethyl-4′-aza-5′-oxo-5′-(2″-butyl-3′″-hydroxyphenyl)pentyl] decahydroisoquinoline-3-N-t-butylcarboxamide]",16.3 nM,13.7 nM,
"CCCc1c(O)cccc1C(=O)NC(Cc1ccccc1)C(O)CN1CC2CCCCC2CC1C(=O)NC(C)(C)C (stereo not drawn) [Example 22, [3S-(3R*,4aR*,8aR*,2′S*,3′R*)]-2-[2′-Hydroxy-3′-phenylmethyl-4′-aza-5′-oxo-5′-(2″-propyl-3″-hydroxyphenyl)pentyl] decahydroisoquinoline-3-N-t-butylcarboxamide]",1.29 nM,124 nM,
"Cc1c(O)cccc1C(=O)NC(Cc1ccccc1)C(O)CN1CC2CCCCC2CC1C(=O)NC(C)(C)C (stereo not drawn) [Example 23, [3S-(3R*,4aR*,8aR*,2′S*,3′R*)]-2-[2′-Hydroxy-3′-phenylmethyl-4′-aza-5′-oxo-5′-(2″-methyl-3″-hydroxyphenyl)pentyl] decahydroisoquinoline-3-N-t-butylcarboxamide]",,,Fluorescence Assay IC50 [3]: 0.00025 µg/mL; Pandex IC50 ng/ml [4]: 0.2^c ng/ml and 0.16^d ng/ml and 0.2^b ng/ml
"Cc1c(O)cccc1C(=O)NC(CSc1ccc2ccccc2c1)C(O)CN1CC2CCCCC2CC1C(=O)NC(C)(C)C (stereo not drawn) [Example 24, [3S-(3R*,4aR*,8aR*,2′S*,3′R*)]-2-[2′-Hydroxy-3′-(naphth-2-ylthiomethyl)-4′-aza-5′-oxo-5′-(2″-methyl-3″-hydroxyphenyl)pentyl] decahydroisoquinoline-3-N-t-butylcarboxamide]",9.39 nM,4.53 nM,Pandex % at 20 ng/ml (at 20 ng/ml): 84%/20^d
"Cc1c(O)cccc1C(=O)N[C@@H](CSc1ccc2ccccc2c1)[C@H](O)CN1CCCC[C@H]1C(=O)NC(C)(C)C [Example 25, [2S-(2R*,2′S*,3′S*)]-1-[2′-Hydroxy-3′-(naphth-2-ylthiomethyl-4′-aza-5′-oxo-5′-(2″-methyl-3″-hydroxyphenyl)pentyl]piperidine-2-N-t-butylcarboxamide]",5.68 nM,3.55 nM and 25.4 nM,
"Cc1c(O)cccc1C(=O)N[C@@H](Cc1ccccc1)[C@H](O)CN1CCN(Cc2cccnc2)C[C@H]1C(=O)NC(C)(C)C [Example 26, [2S-(2R*,2′S*,3′R*)]-1-[2′-Hydroxy-3′-phenylmethyl-4′-aza-5′-oxo-5′-(2″-methyl-3″-hydroxyphenyl)pentyl]-4-(pyrid-3′″-ylmethyl) piperazine-2-N-t-butylcarboxamide]",5.4 nM,4.01 nM,
"[3S-(3R*,4aR*,8aR*,2′S*,3′S*)]-2-[2′-Hydroxy-3′-phenylmethyl-4′-aza-5′-oxo-5′-[2″-methyl-3″-N-(methylsulfonyl)amino-phenyl)]pentyl] decahydroisoguinoline-3-N-t-butylcarboxamide [Example 36]",,,Fluorescence Assay IC50 [3]: 0.062 µg/mL; Pandex IC50 ng/ml [4]: 93^e ng/ml
